Experimental data: ChEMBL document CHEMBL4706583, “2-Anilinoquinoline based arylamides as broad spectrum anticancer agents with B-RAF/C-RAF kinase inhibitory effects: Design, synthesis, in vitro cell-based and oncogenic kinase assessments” (Eur J Med Chem, 2020)

What was measured:
T47D = assay: Growth inhibition of human T47D cells measured after 48 hrs by SRB assay; assay type: functional
IGROV-1 = assay: Growth inhibition of human IGROV-1 cells measured after 48 hrs by SRB assay; assay type: functional
Homo sapiens = species: Homo sapiens; assay: Selectivity ratio of IC50 for inhibition of human BRAF V600E mutant to IC50 for inhibition of human CRAF
HCT-116 [1] = assay: Induction of apoptosis in human HCT-116 cells assessed as viable cells at 1.25 uM measured after 48 hrs by Annexin-V Alexa Fluor488/propidium iodide staining based flow cytometry (reference value: 82.3%); assay type: functional; details: read-out: Activity
HCT-116 [2] = assay: Induction of apoptosis in human HCT-116 cells assessed as late apoptotic cells at 1.25 uM measured after 48 hrs by Annexin-V Alexa Fluor488/propidium iodide staining based flow cytometry (reference value: 2.2%); assay type: functional
HCT-116 [3] = assay: Growth inhibition of human HCT-116 cells measured after 48 hrs by SRB assay; assay type: functional
[4] = Cytotoxicity against human L132 cells assessed as cell viability at 1 uM measured after 48 hrs by EZ-Cytox assay relative to control; assay type: cell-based; details: read-out: Activity
CAKI-1 = assay: Growth inhibition of human CAKI-1 cells measured after 48 hrs by SRB assay; assay type: functional
HCT-116 [5] = assay: Induction of apoptosis in human HCT-116 cells assessed as late apoptotic cells at 5 uM measured after 48 hrs by Annexin-V Alexa Fluor488/propidium iodide staining based flow cytometry (reference value: 2.2%); assay type: functional
LOX IMVI [6] = assay: Growth inhibition of human LOX IMVI cells at 10 uM measured after 48 hrs by SRB assay relative to control; assay type: functional; details: read-out: GI
LOX IMVI [7] = assay: Growth inhibition of human LOX IMVI cells measured after 48 hrs by SRB assay; assay type: functional; details: for CC50: read-out: LC50 (the source's name)
OVCAR-3 = assay: Growth inhibition of human OVCAR-3 cells measured after 48 hrs by SRB assay; assay type: functional
HCT-116 [8] = assay: Induction of apoptosis in human HCT-116 cells assessed as necrotic cells at 2.5 uM measured after 24 hrs by Annexin-V Alexa Fluor488/propidium iodide staining based flow cytometry (reference value: 4.6%); assay type: functional
HCT-116 [9] = assay: Induction of apoptosis in human HCT-116 cells assessed as necrotic cells at 1.25 uM measured after 24 hrs by Annexin-V Alexa Fluor488/propidium iodide staining based flow cytometry (reference value: 4.6%); assay type: functional
KM12 = assay: Growth inhibition of human KM12 cells measured after 48 hrs by SRB assay; assay type: functional
NCI-H322M = assay: Growth inhibition of human NCI-H322M cells measured after 48 hrs by SRB assay; assay type: functional
SK-OV-3 = assay: Growth inhibition of human SK-OV-3 cells measured after 48 hrs by SRB assay; assay type: functional
HCT-116 [10] = assay: Induction of apoptosis in human HCT-116 cells assessed as necrotic cells at 5 uM measured after 48 hrs by Annexin-V Alexa Fluor488/propidium iodide staining based flow cytometry (reference value: 7.7%); assay type: functional
K562 = assay: Growth inhibition of human K562 cells measured after 48 hrs by SRB assay; assay type: functional
SNB-75 = assay: Growth inhibition of human SNB-75 cells measured after 48 hrs by SRB assay; assay type: functional
MDA-MB-435 = assay: Growth inhibition of human MDA-MB-435 cells measured after 48 hrs by SRB assay; assay type: functional
786-0 = assay: Growth inhibition of human 786-0 cells measured after 48 hrs by SRB assay; assay type: functional
DU-145 = assay: Growth inhibition of human DU-145 cells measured after 48 hrs by SRB assay; assay type: functional
[11] = target: Serine/threonine-protein kinase B-raf (Homo sapiens, UniProt P15056); assay: Inhibition of human BRAF using MEK1 (K97R) as substrate in presence of [gamma-33P]ATP by scintillation counting method
Chain of Serine/threonine-protein kinase B-raf (P15056 whole entry): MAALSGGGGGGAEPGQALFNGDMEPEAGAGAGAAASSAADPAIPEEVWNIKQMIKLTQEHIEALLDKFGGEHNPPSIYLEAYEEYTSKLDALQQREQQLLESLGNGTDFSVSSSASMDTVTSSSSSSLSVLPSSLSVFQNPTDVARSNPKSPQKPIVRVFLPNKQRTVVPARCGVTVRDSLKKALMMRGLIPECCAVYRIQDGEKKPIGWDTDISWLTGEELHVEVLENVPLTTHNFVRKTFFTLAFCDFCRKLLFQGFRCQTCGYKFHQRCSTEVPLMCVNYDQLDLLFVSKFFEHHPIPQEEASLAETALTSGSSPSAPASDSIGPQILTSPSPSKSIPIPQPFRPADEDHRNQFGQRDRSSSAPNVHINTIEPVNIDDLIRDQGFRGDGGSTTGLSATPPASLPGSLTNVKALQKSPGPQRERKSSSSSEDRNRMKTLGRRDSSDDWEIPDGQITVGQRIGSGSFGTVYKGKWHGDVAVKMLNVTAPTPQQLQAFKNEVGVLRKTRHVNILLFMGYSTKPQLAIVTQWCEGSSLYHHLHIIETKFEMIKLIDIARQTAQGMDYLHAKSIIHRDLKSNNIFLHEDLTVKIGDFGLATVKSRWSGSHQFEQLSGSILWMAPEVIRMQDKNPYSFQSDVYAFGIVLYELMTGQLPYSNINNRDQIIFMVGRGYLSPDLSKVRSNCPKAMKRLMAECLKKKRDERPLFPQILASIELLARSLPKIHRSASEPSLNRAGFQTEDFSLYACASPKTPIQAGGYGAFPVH

[12] = Cytotoxicity against African green monkey Vero cells assessed as cell viability at 3 uM measured after 48 hrs by EZ-Cytox assay relative to control; assay type: cell-based; details: chlorocebus sabaeus, read-out: Activity
SW-620 = assay: Growth inhibition of human SW-620 cells measured after 48 hrs by SRB assay; assay type: functional
HCT-116 [13] = assay: Induction of apoptosis in human HCT-116 cells assessed as viable cells at 2.5 uM measured after 24 hrs by Annexin-V Alexa Fluor488/propidium iodide staining based flow cytometry (reference value: 88.1%); assay type: functional; details: read-out: Activity
UO-31 = assay: Growth inhibition of human UO-31 cells measured after 48 hrs by SRB assay; assay type: functional
SNB-19 = assay: Growth inhibition of human SNB-19 cells measured after 48 hrs by SRB assay; assay type: functional
HCT-116 [14] = assay: Induction of apoptosis in human HCT-116 cells assessed as early apoptotic cells at 1.25 uM measured after 48 hrs by Annexin-V Alexa Fluor488/propidium iodide staining based flow cytometry (reference value: 7.7%); assay type: functional
HCT-116 [15] = assay: Induction of apoptosis in human HCT-116 cells assessed as late apoptotic cells at 2.5 uM measured after 24 hrs by Annexin-V Alexa Fluor488/propidium iodide staining based flow cytometry (reference value: 1%); assay type: functional
[16] = system: Panel NCI-60 (60 carcinoma cell lines); assay: Growth inhibition of human Panel NCI-60 (60 carcinoma cell lines) cells at 10 uM measured after 48 hrs by SRB assay relative to control; assay type: functional; details: read-out: GI
SK-MEL-2 = assay: Growth inhibition of human SK-MEL-2 cells measured after 48 hrs by SRB assay; assay type: functional
HCT-116 [17] = assay: Induction of apoptosis in human HCT-116 cells assessed as necrotic cells at 2.5 uM measured after 48 hrs by Annexin-V Alexa Fluor488/propidium iodide staining based flow cytometry (reference value: 7.7%); assay type: functional
M14 = assay: Growth inhibition of human M14 cells measured after 48 hrs by SRB assay; assay type: functional; details: for CC50: read-out: LC50 (the source's name)
SK-MEL-28 = assay: Growth inhibition of human SK-MEL-28 cells measured after 48 hrs by SRB assay; assay type: functional
A549 = assay: Growth inhibition of human A549 cells measured after 48 hrs by SRB assay; assay type: functional
EKVX = assay: Growth inhibition of human EKVX cells measured after 48 hrs by SRB assay; assay type: functional
HCT-116 [18] = assay: Induction of apoptosis in human HCT-116 cells assessed as viable cells at 1.25 uM measured after 24 hrs by Annexin-V Alexa Fluor488/propidium iodide staining based flow cytometry (reference value: 88.1%); assay type: functional; details: read-out: Activity
[19] = target: High affinity nerve growth factor receptor (Homo sapiens, UniProt P04629); assay: Inhibition of human TRKA using poly[Glu:Tyr] (4:1) as substrate in presence of [gamma-33P]ATP by scintillation counting method
Chain of High affinity nerve growth factor receptor (P04629 whole entry, the tested form may be a part): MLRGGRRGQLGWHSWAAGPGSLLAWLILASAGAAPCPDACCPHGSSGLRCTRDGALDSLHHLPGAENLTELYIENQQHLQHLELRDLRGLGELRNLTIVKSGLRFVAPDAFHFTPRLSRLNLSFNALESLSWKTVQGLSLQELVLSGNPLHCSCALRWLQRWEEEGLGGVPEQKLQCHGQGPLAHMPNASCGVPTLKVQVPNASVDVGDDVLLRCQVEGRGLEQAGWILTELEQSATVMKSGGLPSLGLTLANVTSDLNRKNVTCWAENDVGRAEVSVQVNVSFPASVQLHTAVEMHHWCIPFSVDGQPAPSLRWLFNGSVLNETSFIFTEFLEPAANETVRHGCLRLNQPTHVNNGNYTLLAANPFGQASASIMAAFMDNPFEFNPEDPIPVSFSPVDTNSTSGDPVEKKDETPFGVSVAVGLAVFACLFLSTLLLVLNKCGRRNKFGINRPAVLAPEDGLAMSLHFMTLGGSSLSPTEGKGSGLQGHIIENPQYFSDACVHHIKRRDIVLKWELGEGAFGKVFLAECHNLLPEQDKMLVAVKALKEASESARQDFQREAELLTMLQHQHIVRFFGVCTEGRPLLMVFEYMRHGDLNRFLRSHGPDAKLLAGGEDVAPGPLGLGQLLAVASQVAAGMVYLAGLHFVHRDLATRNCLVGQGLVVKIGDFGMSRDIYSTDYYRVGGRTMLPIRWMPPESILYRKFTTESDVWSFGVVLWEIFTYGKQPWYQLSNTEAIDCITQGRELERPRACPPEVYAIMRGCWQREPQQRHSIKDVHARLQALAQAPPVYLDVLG

[20] = target: Epithelial discoidin domain-containing receptor 1 (Homo sapiens, UniProt Q08345); assay: Inhibition of human DDR1 using KKSRGDYMTMQIG as substrate in presence of [gamma-33P]ATP by scintillation counting method
Chain of Epithelial discoidin domain-containing receptor 1 (Q08345 whole entry, the tested form may be a part): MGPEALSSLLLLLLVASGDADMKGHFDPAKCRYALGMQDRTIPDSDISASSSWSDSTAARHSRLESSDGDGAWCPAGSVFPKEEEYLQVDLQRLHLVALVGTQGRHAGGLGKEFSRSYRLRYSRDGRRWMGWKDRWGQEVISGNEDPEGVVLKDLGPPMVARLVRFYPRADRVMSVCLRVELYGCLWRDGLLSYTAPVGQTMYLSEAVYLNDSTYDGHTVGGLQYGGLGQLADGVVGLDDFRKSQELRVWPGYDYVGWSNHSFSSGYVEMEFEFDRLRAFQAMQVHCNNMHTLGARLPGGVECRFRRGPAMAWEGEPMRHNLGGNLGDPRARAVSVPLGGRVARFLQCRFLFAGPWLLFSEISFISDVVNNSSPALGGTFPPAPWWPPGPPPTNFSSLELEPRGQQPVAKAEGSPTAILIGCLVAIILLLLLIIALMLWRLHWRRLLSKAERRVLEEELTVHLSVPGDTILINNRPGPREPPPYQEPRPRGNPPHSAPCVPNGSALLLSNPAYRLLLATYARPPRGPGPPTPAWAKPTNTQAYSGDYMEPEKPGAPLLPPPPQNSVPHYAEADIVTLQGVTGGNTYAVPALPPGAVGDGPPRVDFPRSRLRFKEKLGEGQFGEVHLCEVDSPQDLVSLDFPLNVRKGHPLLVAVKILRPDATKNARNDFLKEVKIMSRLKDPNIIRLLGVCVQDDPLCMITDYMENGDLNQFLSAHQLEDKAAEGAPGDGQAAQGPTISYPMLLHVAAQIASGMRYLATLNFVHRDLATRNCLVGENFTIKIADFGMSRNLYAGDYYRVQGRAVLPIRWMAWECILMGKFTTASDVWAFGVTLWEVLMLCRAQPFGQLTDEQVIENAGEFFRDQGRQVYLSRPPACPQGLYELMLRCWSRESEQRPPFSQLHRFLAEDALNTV

Question: Which results are given for `CCN1CCN(c2cc(C(=O)Nc3cccc(Nc4ccc5c(OC)cccc5n4)c3)cc(C(F)(F)F)c2)CC1`?
Answer: GI50 (T47D): 2.05 µM; GI50 (IGROV-1): 0.924 µM; LC50 (IGROV-1): 20 µM; TGI (IGROV-1): 5.23 µM; Ratio IC50 (Homo sapiens): 2; viability at 1.25 µM (HCT-116 [1]): 82.7%; Activity (HCT-116 [2]): 0.4%; GI50 (HCT-116 [3]): 0.872 µM; LC50 (HCT-116 [3]): 12.4 µM; TGI (HCT-116 [3]): 3.54 µM; viability at 48 h, 1 µM [4]: 91.2%; GI50 (CAKI-1): 0.917 µM; Activity (HCT-116 [5]): 0.6%; inhibition of growth at 10 µM (LOX IMVI [6]): 194%; GI50 (LOX IMVI [7]): 0.78 µM; TGI (LOX IMVI [7]): 1.96 µM; CC50 (LOX IMVI [7]): 7.04 µM; GI50 (OVCAR-3): 3.41 µM; Activity (HCT-116 [8]): 0.6%; Activity (HCT-116 [9]): 0.4%; GI50 (KM12): 1.71 µM; GI50 (NCI-H322M): 1.33 µM; GI50 (SK-OV-3): 4.6 µM; Activity (HCT-116 [10]): 0.5%; GI50 (K562): 0.91 µM; GI50 (SNB-75): 1.05 µM; GI50 (MDA-MB-435): 1.16 µM; GI50 (786-0): 3.73 µM; GI50 (DU-145): 1.88 µM; IC50 [11]: 2.23 µM; viability at 48 h, 3 µM [12]: 76.8%; GI50 (SW-620): 3.67 µM; viability at 2.5 µM (HCT-116 [13]): 82.9%; GI50 (UO-31): 0.746 µM; LC50 (concentration killing 50% of cells) (UO-31): 12.4 µM; TGI (UO-31): 3.88 µM; GI50 (SNB-19): 2.1 µM; Activity (HCT-116 [14]): 16.6%; Activity (HCT-116 [15]): 0.9%; inhibition of growth at 10 µM [16]: 95%; GI50 (SK-MEL-2): 5.3 µM; Activity (HCT-116 [17]): 1.2%; GI50 (M14): 0.668 µM; TGI (M14): 1.65 µM; CC50 (M14): 5.86 µM; GI50 (SK-MEL-28): 0.846 µM; GI50 (A549): 1.05 µM; GI50 (EKVX): 3.07 µM; viability at 1.25 µM (HCT-116 [18]): 86.5%; IC50 [19]: 1.67 µM; IC50 [20]: 0.538 µM

Question: Which GI50 (T47D) does the source give for `COc1cccc2nc(Nc3cccc(NC(=O)c4ccc(N5CCN(C)CC5)c(C(F)(F)F)c4)c3)ccc12` here?
Answer: 1 µM

Question: And the GI50 (IGROV-1)?
Answer: 1.25 µM

Question: What about the LC50 (IGROV-1) of the same compound?
Answer: 25.6 µM

Question: What about the TGI (IGROV-1) of the same compound?
Answer: 4.24 µM

Question: What about the Ratio IC50 (Homo sapiens) of the same compound?
Answer: 2

Question: And the viability at 1.25 µM (HCT-116 [1])?
Answer: 81.7%

Question: And the Activity (HCT-116 [2])?
Answer: 1.7%

Question: What about the GI50 (HCT-116 [3]) of the same compound?
Answer: 0.868 µM

Question: What about the LC50 (HCT-116 [3]) of the same compound?
Answer: 4.1 µM

Question: And the TGI (HCT-116 [3])?
Answer: 1.89 µM

Question: And the viability at 48 h, 1 µM [4]?
Answer: 97%

Question: And the GI50 (CAKI-1)?
Answer: 1.12 µM

Question: What about the Activity (HCT-116 [5]) of the same compound?
Answer: 5.4%

Question: And the inhibition of growth at 10 µM (LOX IMVI [6])?
Answer: 197%

Question: What about the GI50 (LOX IMVI [7]) of the same compound?
Answer: 0.873 µM

Question: And the TGI (LOX IMVI [7])?
Answer: 1.57 µM

Question: What about the CC50 (LOX IMVI [7]) of the same compound?
Answer: 2.83 µM

Question: What about the GI50 (OVCAR-3) of the same compound?
Answer: 1.21 µM

Question: And the Activity (HCT-116 [8])?
Answer: 8.6%

Question: What about the Activity (HCT-116 [9]) of the same compound?
Answer: 11%

Question: And the GI50 (KM12)?
Answer: 1.09 µM

Question: What about the GI50 (NCI-H322M) of the same compound?
Answer: 1.65 µM

Question: What about the GI50 (SK-OV-3) of the same compound?
Answer: 1.73 µM

Question: And the Activity (HCT-116 [10])?
Answer: 3.5%

Question: What about the GI50 (K562) of the same compound?
Answer: 1.1 µM

Question: And the GI50 (SNB-75)?
Answer: 0.695 µM

Question: What about the GI50 (MDA-MB-435) of the same compound?
Answer: 0.878 µM

Question: And the GI50 (786-0)?
Answer: 0.923 µM

Question: And the GI50 (DU-145)?
Answer: 1.81 µM

Question: What about the IC50 [11] of the same compound?
Answer: 2.94 µM

Question: What about the viability at 48 h, 3 µM [12] of the same compound?
Answer: 86.9%

Question: And the GI50 (SW-620)?
Answer: 0.968 µM

Question: What about the viability at 2.5 µM (HCT-116 [13]) of the same compound?
Answer: 81.2%

Question: What about the GI50 (UO-31) of the same compound?
Answer: 0.734 µM

Question: And the LC50 (concentration killing 50% of cells) (UO-31)?
Answer: 3.04 µM

Question: What about the TGI (UO-31) of the same compound?
Answer: 1.49 µM

Question: What about the GI50 (SNB-19) of the same compound?
Answer: 1.11 µM

Question: What about the Activity (HCT-116 [14]) of the same compound?
Answer: 14%

Question: What about the Activity (HCT-116 [15]) of the same compound?
Answer: 4.1%

Question: And the inhibition of growth at 10 µM [16]?
Answer: 86.8%

Question: And the GI50 (SK-MEL-2)?
Answer: 1.36 µM

Question: And the Activity (HCT-116 [17])?
Answer: 4.2%

Question: And the GI50 (M14)?
Answer: 0.899 µM

Question: What about the TGI (M14) of the same compound?
Answer: 1.95 µM

Question: What about the CC50 (M14) of the same compound?
Answer: 4.21 µM

Question: And the GI50 (SK-MEL-28)?
Answer: 0.896 µM

Question: What about the GI50 (A549) of the same compound?
Answer: 1.43 µM

Question: And the GI50 (EKVX)?
Answer: 1.83 µM

Question: And the viability at 1.25 µM (HCT-116 [18])?
Answer: 82.7%

Question: And the IC50 [19]?
Answer: 34 µM

Question: What about the IC50 [20] of the same compound?
Answer: 2.25 µM
